Laboratory results reported in ChEMBL document CHEMBL1158929, “Tolytoxin and new scytophycins from three species of Scytonema” (J Nat Prod, 1990).
In brackets after ≈: the same amount, converted by molar mass. Activity calls are given as the source filed them. The calls are words filed in the database; no cut-off is given here.

Legend:
[1] = system: Candida albicans; assay: Antifungal activity against Candida albicans by agar diffusion assay; type: functional, organism-based
[2] = system: Penicillium chrysogenum; assay: Antifungal activity against Penicillium notatum by agar diffusion assay; type: functional, organism-based
[3] = system: Aspergillus oryzae; assay: Antifungal activity against Aspergillus oryzae by agar diffusion assay; type: functional, organism-based
[4] = system: KB; assay: Cytotoxicity against human KB cells; type: functional, cell-based
[5] = system: Saccharomyces cerevisiae; assay: Antifungal activity against Saccharomyces cerevisiae by agar diffusion assay; type: functional, organism-based
[6] = system: LoVo; assay: Cytotoxicity against human LoVo cells; type: functional

Row | SMILES | Activity [1] | Activity [2] | Activity [3] | IC50 [4] [ng/mL] | Activity [5] | MIC [6] [µg/mL]
1 | CO[C@H]([C@H](C)/C=C/N(C)C=O)[C@@H](C)C(=O)CC[C@H](C)[C@H](O)[C@H](C)[C@H]1OC(=O)/C=C/C(C)=C/C[C@H](O)C[C@@H]2C=CC[C@@H](C[C@H](OC)[C@@H](C)[C@@H](OC)C[C@@H](O)[C@@H]1C)O2 | Active | Active | Active | 1 (≈ 1.26 nM) | Active | 
2 | CO[C@H]([C@H](C)/C=C/N(C)C=O)[C@@H](C)C(=O)CC[C@H](C)[C@H](O)[C@H](C)[C@H]1OC(=O)/C=C/C(C)=C/[C@H](O)[C@H](OC)C[C@@H]2C=CC[C@@H](C[C@H](OC)[C@@H](CO)[C@@H](OC)C[C@@H](OC)[C@@H]1C)O2 | Active | Active | Active | 1 (≈ 1.17 nM) | Active | 
3 | CO[C@H]([C@H](C)/C=C/N(C)C=O)[C@@H](C)C(=O)CC[C@H](C)[C@H](O)[C@H](C)[C@H]1OC(=O)/C=C/C(C)=C/[C@H](O)[C@H](O)C[C@@H]2C=CC[C@@H](C[C@H](OC)[C@@]3(CO3)[C@@H](OC)C[C@@H](OC)[C@@H]1C)O2 [6-HYDROXYSCYTOPHYCIN B] | Active | Active | Active | 1 (≈ 1.2 nM) | Active | 
4 | CO[C@H]([C@H](C)/C=C/N(C)C=O)[C@@H](C)C(O)CC[C@H](C)[C@H](O)[C@H](C)[C@H]1OC(=O)/C=C/C(C)=C/C[C@H](O)C[C@@H]2C=CC[C@@H](C[C@H](OC)[C@@]3(CO3)[C@@H](OC)C[C@@H](OC)[C@@H]1C)O2 (stereo partly specified) [SCYTOPHYCIN A] |  |  |  | 1 (≈ 1.22 nM) |  | 
5 | CO[C@H]([C@H](C)/C=C/N(C)C=O)[C@@H](C)C(=O)CC[C@H](C)[C@H](O)[C@H](C)[C@H]1OC(=O)/C=C/C(C)=C/C[C@H](O)C[C@@H]2C=CC[C@@H](C[C@H](OC)[C@@]3(CO3)[C@@H](OC)C[C@@H](OC)[C@@H]1C)O2 [SCYTOPHYCIN B] |  |  |  | 1 (≈ 1.22 nM) |  | 
6 | CO[C@H]([C@H](C)/C=C/N(C)C=O)[C@@H](C)C(=O)CC[C@H](C)[C@H](O)[C@H](C)[C@H]1OC(=O)/C=C/C(C)=C/C[C@H](O)C[C@@H]2C=CC[C@@H](C[C@H](OC)[C@@H](C)[C@@H](OC)C[C@@H](OC)[C@@H]1C)O2 [SCYTOPHYCIN C] |  |  |  | 10 (≈ 12.4 nM) |  | 
7 | CO[C@H]([C@H](C)/C=C/N(C)C=O)[C@@H](C)C(=O)CC[C@H](C)[C@H](O)[C@H](C)[C@H]1OC(=O)/C=C/C(C)=C/C[C@H](O)C[C@@H]2C=CC[C@@H](C[C@H](OC)[C@](C)(O)[C@@H](OC)C[C@@H](OC)[C@@H]1C)O2 [SCYTOPHYCIN D] |  |  |  | 10 (≈ 12.2 nM) |  | 
8 | CO[C@H]([C@H](C)/C=C/N(C)C=O)[C@@H](C)C(=O)CC[C@H](C)[C@H](O)[C@H](C)[C@H]1OC(=O)/C=C/C(C)=C/C[C@H](O)C[C@@H]2C=CC[C@@H](C[C@H](OC)[C@@H](CO)[C@@H](OC)C[C@@H](OC)[C@@H]1C)O2 [SCYTOPHYCIN E] |  |  |  | 10 (≈ 12.2 nM) |  | 0.01 (≈ 12.2 nM)
9 | CO[C@H]([C@H](C)/C=C/N(C)C=O)[C@@H](C)C(=O)CC[C@H](C)[C@H](O)[C@H](C)[C@H]1OC(=O)/C=C/C(C)=C/[C@H](O)[C@H](OC)C[C@@H]2C=CC[C@@H](C[C@H](OC)[C@@]3(CO3)[C@@H](OC)C[C@@H](OC)[C@@H]1C)O2 [TOLYTOXIN] | Active | Active | Active | 1 (≈ 1.18 nM) | Active | 
